Source: PubChem BioAssay AID284 (DTP/NCI, 2004)
Where “and” joins values, the source holds several entries; their conditions need not be identical. Equal entries are not always repeated. Toxic doses and inconclusive results are not listed. How the source made its calls: active means survival T/C of 150% or more; inactive means T/C below 125% in these data.

Test system: BDF1 mice, L1210/MTX-resistant leukemia ip, survival T/C
Experiment: NCI In Vivo Anticancer Drug Screen. Data for tumor model L1210 Leukemia resistant to Methotrexate; NSC 740 (intraperitoneal) in B6D2F1 (BDF1) mice
Details: endpoint: mean survival time, higher = longer survival
Description: The antitumor activity of compounds was measured in mice bearing transplantable tumors. Survival or tumor size were measured and the results are expressed as the measurement made in the treated group (T) divided by the measurement made in the vehicle treated control group (C). The tumor model used in this assay is L1210 Leukemia resistant to Methotrexate; NSC 740 (intraperitoneal) in B6D2F1 (BDF1) mice

[1] = dose: 1.5 mg/kg/injection, schedule: Q01DX010 (ip), vehicle: saline
[2] = dose: 3.0 mg/kg/injection, schedule: Q01DX010 (ip), vehicle: saline
[3] = dose: 6.0 mg/kg/injection, schedule: Q01DX010 (ip), vehicle: saline
[4] = dose: 12.0 mg/kg/injection, schedule: Q01DX010 (ip), vehicle: saline

Measured: T/C

N=C(N)c1ccc(Nc2ccc(C(=N)N)cc2)cc1
inactive: [1] 101 % of control | [2] 97 % of control | [3] 102 % of control | dose: 7.5 mg/kg/injection, schedule: Q01DX Z (ip), vehicle: water 98 % of control | [4] 91 % of control | dose: 12.5 mg/kg/injection, schedule: Q01DX Z (ip), vehicle: water 86 % of control

CN(C)c1nc(N(C)C)nc(N(C)C)n1
inactive: dose: 0.5 mg/kg/injection, schedule: Q01DX Z (ip), vehicle: other 93 % of control | dose: 1.0 mg/kg/injection, schedule: Q01DX Z (ip), vehicle: other 103 % of control | dose: 4.0 mg/kg/injection, schedule: Q01DX Z (ip), vehicle: other 109 % of control | dose: 18.8 mg/kg/injection, schedule: Q01DX010 (ip), vehicle: saline 109 % of control | dose: 37.5 mg/kg/injection, schedule: Q01DX010 (ip), vehicle: saline 105 % of control | dose: 75.0 mg/kg/injection, schedule: Q01DX010 (ip), vehicle: saline 93 % of control | dose: 87.5 mg/kg/injection, schedule: Q01DX Z (ip), vehicle: other 101 % of control | dose: 150.0 mg/kg/injection, schedule: Q01DX010 (ip), vehicle: saline 104 % of control | dose: 175.0 mg/kg/injection, schedule: Q01DX Z (ip), vehicle: other 94 % of control

Nc1ncnc2[nH]ncc12
inactive: [1] 91 % of control and 107 % of control | [2] 96 % of control and 102 % of control | [3] 99 % of control and 103 % of control | [4] 89 % of control

CCn1cnc2c(=S)nc[nH]c21
inactive: dose: 12.0 mg/kg/injection, schedule: Q01DX Z (ip), vehicle: carboxymethylcellulose (CMC) 95 % of control | dose: 15.6 mg/kg/injection, schedule: Q01DX010 (ip), vehicle: saline 102 % of control | dose: 18.0 mg/kg/injection, schedule: Q01DX Z (ip), vehicle: carboxymethylcellulose (CMC) 98 % of control | dose: 25.0 mg/kg/injection, schedule: Q01DX Z (ip), vehicle: carboxymethylcellulose (CMC) 121 % of control | dose: 31.3 mg/kg/injection, schedule: Q01DX010 (ip), vehicle: saline 90 % of control | dose: 37.0 mg/kg/injection, schedule: Q01DX Z (ip), vehicle: carboxymethylcellulose (CMC) 89 % of control | dose: 100.0 mg/kg/injection, schedule: Q01DX Z (ip), vehicle: carboxymethylcellulose (CMC) 90 % of control | dose: 125.0 mg/kg/injection, schedule: Q01DX010 (ip), vehicle: saline 90 % of control
